What was measured:
[1] = target: His-tagged KRAS G12D protein (Homo sapiens, UniProt P01116, G12D); test: KRAS G12D TR-FRET Assay; assay type: binding
Summary of the method: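 His-KRAS G12D (20 nM) was preincubated with titrated compound for 30 min at RT in HEPES pH 7.4 buffer with MgCl2, 10 μM GDP. Biotin-KRPep-2d (20 nM) was then added for 1 h, followed by Eu-anti-His/streptavidin-d2 for 1 h. The 665/615 nm TR-FRET ratio was fitted 4-parameter to give IC50.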

[2] = target: GDP-bound KRAS protein (aa 1-169), containing both G12D and C118A amino acid substitutions (Homo sapiens, UniProt P01116, C118A/G12D); test: KRAS G12D Coupled Nucleotide Exchange Assay; assay type: biochemical
Method: KRAS G12D Coupled Nucleotide Exchange Assay
Following compound pre-incubation, purified SOS protein (aa 564-1049) and GTP (Roche 10106399001) were added to the assay wells and incubated for an additional 30 min. […] The assay plates were then read on a PerkinElmer EnVision Multilabel Reader, using AlphaScreen® technology, and data were analyzed using a 4-parameter logistic model to calculate IC50 values.

[3] = tested on: Phosphorylation of ERK1/2 in AsPC-1 cells; test: Phospho-ERK1/2 MSD Assay; assay type: cell-based; settings: Homo sapiens, ASPC1, 2 h, read-out: 2 h p-ERK (AsPC-1 cells), IC50, AsPC-1 cells, 2 h compound treatment
Summary of the method: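 Phospho-ERK1/2 was quantified by MSD whole-cell lysate immunoassay in RIPA lysates made with protease/phosphatase inhibitors. A 4-parameter logistic model gave IC50.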

Sequence of His-tagged KRAS G12D protein (P01116 1-188 isoform P01116-2 G12D): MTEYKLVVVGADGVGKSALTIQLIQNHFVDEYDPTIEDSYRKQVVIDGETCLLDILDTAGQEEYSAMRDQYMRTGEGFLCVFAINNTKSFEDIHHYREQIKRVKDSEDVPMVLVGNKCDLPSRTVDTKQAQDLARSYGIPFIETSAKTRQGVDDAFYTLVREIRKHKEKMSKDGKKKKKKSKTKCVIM
Sequence of GDP-bound KRAS protein (aa 1-169), containing both G12D and C118A amino acid substitutions (P01116 1-169 isoform P01116-2 G12D/C118A): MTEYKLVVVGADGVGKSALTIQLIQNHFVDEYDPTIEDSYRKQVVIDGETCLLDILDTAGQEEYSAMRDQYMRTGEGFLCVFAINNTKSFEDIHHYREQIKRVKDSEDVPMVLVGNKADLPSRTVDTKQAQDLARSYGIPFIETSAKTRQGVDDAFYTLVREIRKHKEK

Structure (SMILES)	IC50 [1]	IC50 [2]	IC50 [3]
Oc1cc(Cl)c(C2CC2)c(-c2ccc3c(N4CCCOCC4)nc(OC[C@@]45CCCN4C[C@H](F)C5)nc3c2F)c1 [Example 7, 3-Chloro-4-cyclopropyl-5-(8-fluoro-2-(((2R,7a.S)-2-fluorotetrahydro-1H-pyrrolizin-7a(5H)-yl)methoxy)-4-(1,4-oxazepan-4-yl)quinazolin-7-yl)phenol]	12 nM	11 nM	812 nM
Oc1cc(-c2c(F)cc3c(N4CCCOCC4)nc(OC[C@@]45CCCN4C[C@H](F)C5)nc3c2F)c2ccccc2c1 [Example 10, 4-(6,8-Difluoro-2-(((2R,7aS)-2-fluorotetrahydro-1H-pyrrolizin-7a(5H)-yl)methoxy)-4-(1,4-oxazepan-4-yl)quinazolin-7-yl)naphthalen-2-ol]	14 nM	15 nM	1040 nM
CCc1c(F)ccc2cc(O)cc(-c3c(F)cc4c(N5CCC(O)C5)nc(OC[C@@]56CCCN5C[C@H](F)C6)nc4c3F)c12 (stereo partly drawn) [Example 19, 1-(7-(8-Ethyl-7-fluoro-3-hydroxynaphthalen-1-yl)-6,8-difluoro-2-(((2R,7a.S)-2-fluorotetrahydro-1H-pyrrolizin-7a(5H)-yl)methoxy)quinazolin-4-yl)pyrrolidin-3-ol]	111 nM	37 nM	7740 nM
CCc1c(F)ccc2cc(O)cc(-c3c(F)cc4c(N5CCOCC(F)(F)C5)nc(OC[C@@]56CCCN5C[C@H](F)C6)nc4c3F)c12 [Example 37, 4-(4-(6,6-Difluoro-1,4-oxazepan-4-yl)-6,8-difluoro-2-(((2R,7aS)-2-fluorotetrahydro-1H-pyrrolizin-7a(5H)-yl)methoxy)quinazolin-7-yl)-5-ethyl-6-fluoronaphthalen-2-ol]	11 nM	10 nM	391 nM
Oc1cc(-c2ccc3c(N4CCCOCC4)nc(OC[C@]45CCCN4C[C@H](F)C5)nc3c2F)c2ccccc2c1 [Example 41, 4-(8-Fluoro-2-(((2R,7aR)-2-fluorotetrahydro-1H-pyrrolizin-7a(5H)-yl)methoxy)-4-(1,4-oxazepan-4-yl)quinazolin-7-yl)naphthalen-2-ol]	23 nM	23 nM	1470 nM
Oc1cc(-c2ccc3c(N4CCCOCC4)nc(OC[C@@]45CCCN4C[C@H](F)C5)nc3c2F)c2ccccc2c1 [Example 42, 4-(8-Fluoro-2-(((2R,7aS)-2-fluorotetrahydro-1H-pyrrolizin-7a(5H)-yl)methoxy)-4-(1,4-oxazepan-4-yl)quinazolin-7-yl)naphthalen-2-ol]	25 nM	14 nM	1160 nM
Oc1cc(-c2ccc3c(N4CCCOCC4)nc(OCC45CCCN4CCC5)nc3c2F)c2ccccc2c1 [Example 43, 4-(8-Fluoro-4-(1,4-oxazepan-4-yl)-2-((tetrahydro-1H-pyrrolizin-7a(5H)-yl)methoxy)quinazolin-7-yl)naphthalen-2-ol]	22 nM	13 nM	1670 nM
N#Cc1cc2c(N3CCCOCC3)nc(OC[C@@]34CCCN3C[C@H](F)C4)nc2c(F)c1-c1cc(O)cc2ccccc12 [Example 44, 8-Fluoro-2-(((2R,7aS)-2-fluorotetrahydro-1H-pyrrolizin-7a(5H)-yl)methoxy)-7-(3-hydroxynaphthalen-1-yl)-4-(1,4-oxazepan-4-yl)quinazoline-6-carbonitrile]	50 nM	28 nM	1860 nM
CCc1cccc2cc(O)cc(-c3c(C#N)cc4c(N5CCCOCC5)nc(OC[C@@]56CCCN5C[C@H](F)C6)nc4c3F)c12 [Example 45, 7-(8-Ethyl-3-hydroxynaphthalen-1-yl)-8-fluoro-2-(((2R,7aS)-2-fluorotetrahydro-1H-pyrrolizin-7a(5H)-yl)methoxy)-4-(1,4-oxazepan-4-yl)quinazoline-6-carbonitrile]	12 nM	7 nM	525 nM
CCc1c(F)ccc2cc(O)cc(-c3c(N)cc4c(N5CCCOCC5)nc(OC[C@@]56CCCN5C[C@H](F)C6)nc4c3F)c12 [Example 46, 4-(6-Amino-8-fluoro-2-(((2R,7aS)-2-fluorotetrahydro-1H-pyrrolizin-7a(5H)-yl)methoxy)-4-(1,4-oxazepan-4-yl)quinazolin-7-yl)-5-ethyl-6-fluoronaphthalen-2-ol]	79 nM	36 nM	2570 nM
CCc1c(F)ccc2cc(O)cc(-c3ccc4c(N5CCCC6(CNC6=O)C5)nc(OC[C@@]56CCCN5C[C@H](F)C6)nc4c3F)c12 (stereo partly drawn) [Example 52, 6-(7-(8-Ethyl-7-fluoro-3-hydroxynaphthalen-1-y1)-8-fluoro-2-(((2R,7a.S)-2-fluorotetrahydro-1H-pyrrolizin-7a(5H)-yl)methoxy)quinazolin-4-yl)-2,6-diazaspiro[3.5]nonan-1-one]	10 nM	7 nM	179 nM

Stronger by IC50 [1], values ahead:

IC50 [1]	IC50 [2]	IC50 [3]	Structure (SMILES)
6 nM	11 nM	53 nM	CCc1c(F)ccc2cc(O)cc(-c3ccc4c(N5CCCC6(CCO6)C5)nc(OC[C@@]56CCCN5C[C@H](F)C6)nc4c3F)c12 (stereo partly drawn) [Example 40, 5-Ethyl-6-fluoro-4-(8-fluoro-2-(((2R,7aS)-2-fluorotetrahydro-1H-pyrrolizin-7a(5H)-yl)methoxy)-4-(1-oxa-6-azaspiro[3.5]nonan-6-yl)quinazolin-7-yl)naphthalen-2-ol]
5 nM	4 nM	123 nM	C[C@@]1(O)CCCN(c2nc(OC[C@@]34CCCN3C[C@H](F)C4)nc3c(F)c(-c4cc(O)cc(Cl)c4C4CC4)c(F)cc23)C1 [Example 6, (3R)-1-(7-(3-Chloro-2-cyclopropyl-5-hydroxyphenyl)-6,8-difluoro-2-(((2R,7aS)-2-fluorotetrahydro-1H-pyrrolizin-7a(5H)-yl)methoxy)quinazolin-4-yl)-3-methylpiperidin-3-ol]
4 nM	3 nM	259 nM	CCc1c(F)ccc2cc(O)cc(-c3c(F)cc4c(N5CCCOCC5)nc(OC[C@@]56CCCN5C[C@H](F)C6)nc4c3F)c12 [Example 9, 4-(6,8-Difluoro-2-(((2R,7aS)-2-fluorotetrahydro-1H-pyrrolizin-7a(5H)-yl)methoxy)-4-(1,4-oxazepan-4-yl)quinazolin-7-yl)-5-ethyl-6-fluoronaphthalen-2-ol]
4 nM	5 nM	146 nM	CCc1c(F)ccc2cc(O)cc(-c3c(Cl)cc4c(N5CCC[C@@](C)(O)C5)nc(OC[C@@]56CCCN5C[C@H](F)C6)nc4c3F)c12 [Example 25, (3R)-1-(6-Chloro-7-(8-ethyl-7-fluoro-3-hydroxynaphthalen-1-yl)-8-fluoro-2-(((2R,7aS)-2-fluorotetrahydro-1H-pyrrolizin-7a(5H)-yl)methoxy)quinazolin-4-yl)-3-methylpiperidin-3-ol]
4 nM	4 nM	270 nM	CCc1c(F)ccc2cc(O)cc(-c3c(O)cc4c(N5CCCOCC5)nc(OC[C@@]56CCCN5C[C@H](F)C6)nc4c3F)c12 [Example 26, 7-(8-Ethyl-7-fluoro-3-hydroxynaphthalen-1-yl)-8-fluoro-2-(((2R,7aS)-2-fluorotetrahydro-1H-pyrrolizin-7a(5H)-yl)methoxy)-4-(1,4-oxazepan-4-yl)quinazolin-6-ol]
4 nM	4 nM	21 nM	C#Cc1c(F)ccc2cc(O)cc(-c3ccc4c(N5CCC[C@@](C)(O)C5)nc(OC[C@@]56CCCN5C[C@H](F)C6)nc4c3F)c12 [Example 47, (R)-1-(7-(8-Ethynyl-7-fluoro-3-hydroxynaphthalen-1-yl)-8-fluoro-2-(((2R,7aS)-2-fluorotetrahydro-1H-pyrrolizin-7a(5H)-yl)methoxy)quinazolin-4-yl)-3-methylpiperidin-3-ol]
3 nM	3 nM	303 nM	CCc1c(F)ccc2cc(O)cc(-c3ccc4c(N5C[C@H](NC(=O)OC)CC(F)(F)C5)nc(OC[C@@]56CCCN5C[C@H](F)C6)nc4c3F)c12 [Example 5, Methyl ((R)-1-(7-(8-ethyl-7-fluoro-3-hydroxynaphthalen-1-yl)-8-fluoro-2-(((2R,7aS)-2-fluorotetrahydro-1H-pyrrolizin-7a(5H)-yl)methoxy)quinazolin-4-yl)-5,5-difluoropiperidin-3-yl)carbamate]
3 nM	3 nM	23 nM	C#Cc1cccc2cc(O)cc(-c3ccc4c(N5CCC[C@@](C)(O)C5)nc(OC[C@@]56CCCN5C[C@H](F)C6)nc4c3F)c12 [Example 50, (R)-1-(7-(8-Ethynyl-3-hydroxynaphthalen-1-yl)-8-fluoro-2-(((2R,7a.S)-2-fluorotetrahydro-1H-pyrrolizin-7a(5H)-yl)methoxy)quinazolin-4-yl)-3-methylpiperidin-3-ol]
3 nM	4 nM	47 nM	CCc1c(F)ccc2cc(O)cc(-c3ccc4c(N5CCCC6(CC(=O)N6)C5)nc(OC[C@@]56CCCN5C[C@H](F)C6)nc4c3F)c12 (stereo partly drawn) [Example 51, 6-(7-(8-Ethyl-7-fluoro-3-hydroxynaphthalen-1-yl)-8-fluoro-2-(((2R,7aS)-2-fluorotetrahydro-1H-pyrrolizin-7a(5H)-yl)methoxy)quinazolin-4-yl)-1,6-diazaspiro[3.5]nonan-2-one]

Reference: patent US20250179077A1, “QUINAZOLINE COMPOUNDS AND USES THEREOF AS INHIBITORS OF MUTANT KRAS PROTEINS” (AMGEN INC., priority 2022, published 2025)
